# Test results: patent US5578570A, “Method of treating septic shock using thymosin β4” (The George Washington University Medical Center, priority 1994, dated 1996)
# System: endotoxic mice
# Assay: Survival of Swiss Webster mice following lethal endotoxin dose and Tβ4
# Assay type: in vivo
# Conditions: for Number of Mice Alive: Table II, 8 mice at 0 hr.
# Description: Swiss-Webster mice 4-6 weeks of age (20-25 g) were housed 6 per cage. The mice were divided into 2 groups: endotoxic mice (endotoxin 60 mg/kg i.p. in acute treatment) and endotoxic mice treated with Tβ4, 5 minutes and 2, 4, 6, 8, 10, 12, 14, 16, 18, 20, 22, 24 hours post administration of the endotoxin. Survival was recorded 2 times a day for 7 days.
# Swiss-Webster mice 4-6 weeks of age (20-25 g) were divided into groups as follows.
# 1. Mice treated with a lethal dose of endotoxin (60 mg/kg).
# 2. […]
# 3. […]
# 4. […]
substance,measurement,setting,value
Thymosin β4 [Tβ4],protective activity on endotoxin lethality (in words),10 μg Tβ4,sometimes shown positive activity
same,Survival (No. mice alive),"Table I, endotoxin 60 mg/kg + Tβ4 100 μg 1x, 24 hrs, 7 mice at 0 hrs",4
same,Survival (No. mice alive),"Table I, endotoxin 60 mg/kg + Tβ4 100 μg 1x, 48 hrs, 7 mice at 0 hrs",3
same,Survival (No. mice alive),"Table I, endotoxin 60 mg/kg + Tβ4 100 μg 1x, 72 hrs, 7 mice at 0 hrs",3
same,Survival (No. mice alive),"Table I, endotoxin 60 mg/kg + Tβ4 100 μg 2x, 24 hrs, 7 mice at 0 hrs",4
same,Survival (No. mice alive),"Table I, endotoxin 60 mg/kg + Tβ4 100 μg 2x, 48 hrs, 7 mice at 0 hrs",4
same,Survival (No. mice alive),"Table I, endotoxin 60 mg/kg + Tβ4 100 μg 2x, 72 hrs, 7 mice at 0 hrs",4
same,Survival (No. mice alive),"Table I, endotoxin 60 mg/kg + Tβ4 100 μg 3x, 24 hrs, 7 mice at 0 hrs",7
same,Survival (No. mice alive),"Table I, endotoxin 60 mg/kg + Tβ4 100 μg 3x, 48 hrs, 7 mice at 0 hrs",7
same,Survival (No. mice alive),"Table I, endotoxin 60 mg/kg + Tβ4 100 μg 3x, 72 hrs, 7 mice at 0 hrs",7
same,Number of Mice Alive,"endotoxin 60 mg/kg + Tβ4 100 μg 3x, 24 hr.",8
same,Number of Mice Alive,"endotoxin 60 mg/kg + Tβ4 100 μg 3x, 48 hr.",8
same,Number of Mice Alive,"endotoxin 60 mg/kg + Tβ4 100 μg 3x, 72 hr.",8
same,Number of Mice Alive,"endotoxin 60 mg/kg + Tβ4 100 μg 3x, 7 day",8
same,Number of Mice Alive,"endotoxin 60 mg/kg + Tβ4 100 μg 3x, 14 day",8
same,Survival (No. mice alive),"Table VI, endotoxin 60 mg/kg + Tβ4 10 μg 3x, immediately following, 2 and 4 hrs after endotoxin, 24 hrs, 8 mice at 0 hrs",8
same,Survival (No. mice alive),"Table VI, endotoxin 60 mg/kg + Tβ4 10 μg 3x, immediately following, 2 and 4 hrs after endotoxin, 48 hrs, 8 mice at 0 hrs",6
same,Survival (No. mice alive),"Table VI, endotoxin 60 mg/kg + Tβ4 10 μg 3x, immediately following, 2 and 4 hrs after endotoxin, 72 hrs, 8 mice at 0 hrs",6
same,Survival (No. mice alive),"Table VI, endotoxin 60 mg/kg + Tβ4 10 μg 3x, immediately following, 2 and 4 hrs after endotoxin, 96 hrs, 8 mice at 0 hrs",6
same,Survival (No. mice alive),"Table VI, endotoxin 60 mg/kg + Tβ4 10 μg 3x, immediately following, 2 and 4 hrs after endotoxin, 120 hrs, 8 mice at 0 hrs",6
same,Survival (No. mice alive),"Table VI, endotoxin 60 mg/kg + Tβ4 100 μg 3x, 2, 4 and 6 hrs after endotoxin, 24 hrs, 8 mice at 0 hrs",7
same,Survival (No. mice alive),"Table VI, endotoxin 60 mg/kg + Tβ4 100 μg 3x, 2, 4 and 6 hrs after endotoxin, 48 hrs, 8 mice at 0 hrs",4
same,Survival (No. mice alive),"Table VI, endotoxin 60 mg/kg + Tβ4 100 μg 3x, 2, 4 and 6 hrs after endotoxin, 72 hrs, 8 mice at 0 hrs",4
same,Survival (No. mice alive),"Table VI, endotoxin 60 mg/kg + Tβ4 100 μg 3x, 2, 4 and 6 hrs after endotoxin, 96 hrs, 8 mice at 0 hrs",4
same,Survival (No. mice alive),"Table VI, endotoxin 60 mg/kg + Tβ4 100 μg 3x, 2, 4 and 6 hrs after endotoxin, 120 hrs, 8 mice at 0 hrs",4
same,Survival (No. mice alive),"Table VI, endotoxin 60 mg/kg + Tβ4 100 μg 3x, immediately following, 2 and 4 hrs after endotoxin, 24 hrs, 8 mice at 0 hrs",8
same,Survival (No. mice alive),"Table VI, endotoxin 60 mg/kg + Tβ4 100 μg 3x, immediately following, 2 and 4 hrs after endotoxin, 48 hrs, 8 mice at 0 hrs",8
same,Survival (No. mice alive),"Table VI, endotoxin 60 mg/kg + Tβ4 100 μg 3x, immediately following, 2 and 4 hrs after endotoxin, 72 hrs, 8 mice at 0 hrs",8
same,Survival (No. mice alive),"Table VI, endotoxin 60 mg/kg + Tβ4 100 μg 3x, immediately following, 2 and 4 hrs after endotoxin, 96 hrs, 8 mice at 0 hrs",8
same,Survival (No. mice alive),"Table VI, endotoxin 60 mg/kg + Tβ4 100 μg 3x, immediately following, 2 and 4 hrs after endotoxin, 120 hrs, 8 mice at 0 hrs",8
same,Survival (No. mice alive),"Table VII, endotoxin 60 mg/kg + Tβ4 10 μg 3x i.p., immediately following, 2 and 4 hrs after endotoxin, 24 hrs, 10 mice at 0 hrs",3
same,Survival (No. mice alive),"Table VII, endotoxin 60 mg/kg + Tβ4 10 μg 3x i.p., immediately following, 2 and 4 hrs after endotoxin, 48 hrs, 10 mice at 0 hrs",3
same,Survival (No. mice alive),"Table VII, endotoxin 60 mg/kg + Tβ4 10 μg 3x i.p., immediately following, 2 and 4 hrs after endotoxin, 72 hrs, 10 mice at 0 hrs",3
same,Survival (No. mice alive),"Table VII, endotoxin 60 mg/kg + Tβ4 10 μg 3x i.p., immediately following, 2 and 4 hrs after endotoxin, 96 hrs, 10 mice at 0 hrs",3
same,Survival (No. mice alive),"Table VII, endotoxin 60 mg/kg + Tβ4 10 μg 3x i.p., immediately following, 2 and 4 hrs after endotoxin, 5 days, 10 mice at 0 hrs",3
same,Survival (No. mice alive),"Table VII, endotoxin 60 mg/kg + Tβ4 10 μg 3x i.p., immediately following, 2 and 4 hrs after endotoxin, 6 days, 10 mice at 0 hrs",3
same,Survival (No. mice alive),"Table VII, endotoxin 60 mg/kg + Tβ4 20 μg 3x i.p., immediately following, 2 and 4 hrs after endotoxin, 24 hrs, 10 mice at 0 hrs",5
same,Survival (No. mice alive),"Table VII, endotoxin 60 mg/kg + Tβ4 20 μg 3x i.p., immediately following, 2 and 4 hrs after endotoxin, 48 hrs, 10 mice at 0 hrs",4
same,Survival (No. mice alive),"Table VII, endotoxin 60 mg/kg + Tβ4 20 μg 3x i.p., immediately following, 2 and 4 hrs after endotoxin, 72 hrs, 10 mice at 0 hrs",4
same,Survival (No. mice alive),"Table VII, endotoxin 60 mg/kg + Tβ4 20 μg 3x i.p., immediately following, 2 and 4 hrs after endotoxin, 96 hrs, 10 mice at 0 hrs",3
same,Survival (No. mice alive),"Table VII, endotoxin 60 mg/kg + Tβ4 20 μg 3x i.p., immediately following, 2 and 4 hrs after endotoxin, 5 days, 10 mice at 0 hrs",3
same,Survival (No. mice alive),"Table VII, endotoxin 60 mg/kg + Tβ4 20 μg 3x i.p., immediately following, 2 and 4 hrs after endotoxin, 6 days, 10 mice at 0 hrs",3
same,Survival (No. mice alive),"Table VII, endotoxin 60 mg/kg + Tβ4 50 μg 3x i.p., immediately following, 2 and 4 hrs after endotoxin, 24 hrs, 10 mice at 0 hrs",9
same,Survival (No. mice alive),"Table VII, endotoxin 60 mg/kg + Tβ4 50 μg 3x i.p., immediately following, 2 and 4 hrs after endotoxin, 48 hrs, 10 mice at 0 hrs",7
